Measurements from ChEMBL document CHEMBL1201862, “PubChem BioAssay data set” (2004).
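How tested: cells in 96-well plates exposed to compound for 48 hours at five concentrations. GI50 is the concentration that inhibits growth by half.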 Active and inactive are the calls of the source. Rule as the data show it: active = GI50 up to about 1.1 µM and inactive = higher.

How the values were obtained:
Experiment in all cases: NCI anticancer screen, dose series, 48 h
[1] = tested on: HT-29
[2] = tested on: CCRF-CEM
[3] = tested on: OVCAR-5
[4] = tested on: M19-MEL
[5] = tested on: SNB-75
[6] = tested on: M14
[7] = tested on: HOP-62
[8] = tested on: NCI-H522
[9] = tested on: NCI-H226
[10] = tested on: UO-31
[11] = tested on: U-251
[12] = tested on: KM12
[13] = tested on: NCI-H460
[14] = tested on: EKVX
[15] = tested on: HOP-92
[16] = tested on: Malme-3M
[17] = tested on: T47D
[18] = tested on: PC-3
[19] = tested on: RXF 393
[20] = tested on: Hs-578T

Row | SMILES | GI50 [1] | GI50 [2] | GI50 [3] | GI50 [4] | GI50 [5] | GI50 [6] | GI50 [7] | GI50 [8] | GI50 [9] | GI50 [10] | GI50 [11] | GI50 [12] | GI50 [13] | GI50 [14] | GI50 [15] | GI50 [16] | GI50 [17] | GI50 [18] | GI50 [19] | GI50 [20]
1 | O=[N+]([O-])c1ccc(-c2ccc(-c3csc(Nc4ccccc4)n3)o2)cc1 | 22.7 µM (inactive) | 2.93 µM (inactive) | 17.7 µM (inactive) | 29.9 µM (inactive) | 24.9 µM (inactive) | 20.6 µM (inactive) | > 68.4 µM (inactive) | 14.6 µM (inactive) | 40.6 µM (inactive) | 18.7 µM (inactive) | 19.6 µM (inactive) | 19.3 µM (inactive) | 34.8 µM (inactive) | 19.1 µM (inactive) | 19.5 µM (inactive) | 17 µM (inactive) | – | – | – | –
2 | COC(=O)/C=C1\CCC2[C@@H](C(=O)CC3[C@]2(C)CCC[C@@]3(C)C(=O)OC)C1C (some centres not stated) | 24 µM (inactive) | 9.2 µM (inactive) | 33 µM (inactive) | 19.2 µM (inactive) | 18.5 µM (inactive) | 17.9 µM (inactive) | 28.9 µM (inactive) | 16.5 µM (inactive) | 20 µM (inactive) | 21.7 µM (inactive) | 33.3 µM (inactive) | 17.1 µM (inactive) | 15.7 µM (inactive) | 27.3 µM (inactive) | 21 µM (inactive) | 21.1 µM (inactive) | – | – | – | –
3 | CSC(C1c2ccccc2N(C)c2[nH]c(=O)n(C)c(=O)c21)S(=O)(=O)c1ccc(C)cc1 (configuration not stated) | > 100 µM (inactive) | 33.3 µM (inactive) | > 100 µM (inactive) | 40.3 µM (inactive) | 68.5 µM (inactive) | – | > 100 µM (inactive) | 20.1 µM (inactive) | > 100 µM (inactive) | > 100 µM (inactive) | > 100 µM (inactive) | – | – | 33.6 µM (inactive) | > 100 µM (inactive) | > 100 µM (inactive) | – | – | – | –
4 | Nc1nc(NCC2(CO)CCC2)cc(=O)[nH]1 | > 100 µM (inactive) | > 100 µM (inactive) | > 100 µM (inactive) | – | > 100 µM (inactive) | > 100 µM (inactive) | > 100 µM (inactive) | > 100 µM (inactive) | > 100 µM (inactive) | > 100 µM (inactive) | > 100 µM (inactive) | > 100 µM (inactive) | > 100 µM (inactive) | > 100 µM (inactive) | > 100 µM (inactive) | > 100 µM (inactive) | > 100 µM (inactive) | > 100 µM (inactive) | > 100 µM (inactive) | > 100 µM (inactive)
5 | CC1CCCCCC(=O)c2c(O)cc(O)cc2CC(=O)O1 (configuration not stated) [CURVULARIN] | > 100 µM (inactive) | 74.3 µM (inactive) | > 100 µM (inactive) | – | 57.4 µM (inactive) | > 100 µM (inactive) | > 100 µM (inactive) | > 100 µM (inactive) | > 100 µM (inactive) | 45 µM (inactive) | > 100 µM (inactive) | > 100 µM (inactive) | 98.2 µM (inactive) | 61.5 µM (inactive) | > 100 µM (inactive) | > 100 µM (inactive) | 59.2 µM (inactive) | 66.8 µM (inactive) | > 100 µM (inactive) | > 100 µM (inactive)
6 | O=S(=O)(Nc1ccc2ccc3cccc4ccc1c2c34)c1ccccc1 | 49.2 µM (inactive) | 14.1 µM (inactive) | > 100 µM (inactive) | – | 55.7 µM (inactive) | > 100 µM (inactive) | 33.3 µM (inactive) | 4.27 µM (inactive) | 19.4 µM (inactive) | 35.1 µM (inactive) | 50.4 µM (inactive) | 9.98 µM (inactive) | 37.3 µM (inactive) | > 100 µM (inactive) | 4.84 µM (inactive) | 38.9 µM (inactive) | 28.4 µM (inactive) | 14.3 µM (inactive) | > 100 µM (inactive) | 28.1 µM (inactive)
7 | CC#Cc1cc2c(cc1O)CC[C@@H]1[C@@H]2CC[C@]2(C)[C@@H](O)CC[C@@H]12 | 13.8 µM (inactive) | 0.684 µM (active) | 17.9 µM (inactive) | – | 1.4 µM (inactive) | 0.521 µM (active) | 1.29 µM (inactive) | 0.289 µM (active) | 2.8 µM (inactive) | 9.23 µM (inactive) | 0.748 µM (active) | 3.08 µM (inactive) | 0.475 µM (active) | 2.49 µM (inactive) | 11.8 µM (inactive) | 0.582 µM (active) | 3.15 µM (inactive) | 3.92 µM (inactive) | 2.45 µM (inactive) | 1.11 µM (active)
8 | NCC1OC(n2cnc3c(N)ncnc32)CC1O (configuration not stated) | > 100 µM (inactive) | > 100 µM (inactive) | > 100 µM (inactive) | – | > 100 µM (inactive) | > 100 µM (inactive) | > 100 µM (inactive) | > 100 µM (inactive) | > 100 µM (inactive) | > 100 µM (inactive) | > 100 µM (inactive) | > 100 µM (inactive) | > 100 µM (inactive) | > 100 µM (inactive) | > 100 µM (inactive) | > 100 µM (inactive) | > 100 µM (inactive) | > 100 µM (inactive) | > 100 µM (inactive) | > 100 µM (inactive)
9 | O=C1Nc2ccccc2/C1=C1/Nc2ccccc2/C1=N/OCCOCCO | 1.45 µM (inactive) | 3.27 µM (inactive) | 4.62 µM (inactive) | – | 2.35 µM (inactive) | 1.9 µM (inactive) | 3.9 µM (inactive) | 2.47 µM (inactive) | 0.547 µM (active) | 0.662 µM (active) | 3.29 µM (inactive) | 0.0423 µM (active) | 1.21 µM (inactive) | 2.67 µM (inactive) | 13.8 µM (inactive) | 1.43 µM (inactive) | 2.89 µM (inactive) | 2.36 µM (inactive) | 1.03 µM (active) | 0.592 µM (active)
10 | C[C@@H]1CCC2[C@@H](C)[C@H](O[C@H]3O[C@@H]4O[C@@]5(C)CCC6[C@H](C)CCC([C@H]3C)[C@]64OO5)O[C@@H]3O[C@@]4(C)CCC1[C@@]23OO4 (some centres not stated) | 0.0491 µM (active) | 0.0462 µM (active) | 0.352 µM (active) | – | 0.188 µM (active) | 0.475 µM (active) | 4.04 µM (inactive) | 0.0577 µM (active) | 2.11 µM (inactive) | 0.0559 µM (active) | 0.0637 µM (active) | 0.0317 µM (active) | 0.0675 µM (active) | 0.142 µM (active) | 0.114 µM (active) | 0.635 µM (active) | 0.0293 µM (active) | 0.0148 µM (active) | 1.3 µM (inactive) | 0.39 µM (active)
11 | CC(C)[Si](OC1=C(C(=O)N(C)c2ccccc2Cl)CCCC1)(C(C)C)C(C)C | 15.8 µM (inactive) | 12.7 µM (inactive) | 12.8 µM (inactive) | – | 14.3 µM (inactive) | 16.1 µM (inactive) | 18 µM (inactive) | 5.77 µM (inactive) | 16 µM (inactive) | 14.5 µM (inactive) | 12.1 µM (inactive) | 14.2 µM (inactive) | 12.9 µM (inactive) | 13.6 µM (inactive) | 13.3 µM (inactive) | 13 µM (inactive) | 2.55 µM (inactive) | 11.4 µM (inactive) | 16.1 µM (inactive) | 13.3 µM (inactive)
